From US8841312B2, “Fused pyridine, pyrimidine and triazine compounds as cell cycle inhibitors” (Amgen Inc., priority 2007, dated 2014)

The compounds below were run against Cdk4/CyclinD1 (Homo sapiens (Human), UniProt P11802) (assay: Cdk4 kinase inhibition assay with recombinant Cdk4/CyclinD1, Rb substrate, [33P]-ATP filter plate). Conditions: 25 μM ATP, read-out: Cdk 4 IC50.
Assay type: biochemical
Protocol: The Cdk4 and Cdk6 inhibitory activity of the compounds is measured with a kinase inhibition assay using recombinant Cdk4/CyclinD1 or Cdk6/CyclinD3 protein complexes. The protein substrate used in the assay is the retinoblastoma protein (Rb). The kinase reactions are carried out in a 96-well filter plate (MSDV N6B50, Millipore). […] The mixture is incubated at room temperature for 1 hour and the proteins precipitated with an equal volume of 20% TCA. The plates are washed with 10% TCA according to the manufacturer's instruction and dried at room temperature. The amount of the phosphorylated Rb is determined with a TopCount (PerkinElmer). The IC50 of a compound is determined by nonlinear regression curve fitting using software program Prism 5 (GraphPad Software).

Sequence of Cdk4/CyclinD1 (P11802 whole entry): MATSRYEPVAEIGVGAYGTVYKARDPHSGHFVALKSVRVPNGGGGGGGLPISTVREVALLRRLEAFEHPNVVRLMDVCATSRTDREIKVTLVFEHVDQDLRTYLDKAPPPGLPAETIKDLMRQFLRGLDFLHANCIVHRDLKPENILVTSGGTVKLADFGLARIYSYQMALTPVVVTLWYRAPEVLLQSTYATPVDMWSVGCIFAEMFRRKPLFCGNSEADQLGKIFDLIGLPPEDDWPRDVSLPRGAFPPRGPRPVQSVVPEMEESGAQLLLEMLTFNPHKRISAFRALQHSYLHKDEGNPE
Sequence of Cdk4/CyclinD1 (P24385 whole entry partner): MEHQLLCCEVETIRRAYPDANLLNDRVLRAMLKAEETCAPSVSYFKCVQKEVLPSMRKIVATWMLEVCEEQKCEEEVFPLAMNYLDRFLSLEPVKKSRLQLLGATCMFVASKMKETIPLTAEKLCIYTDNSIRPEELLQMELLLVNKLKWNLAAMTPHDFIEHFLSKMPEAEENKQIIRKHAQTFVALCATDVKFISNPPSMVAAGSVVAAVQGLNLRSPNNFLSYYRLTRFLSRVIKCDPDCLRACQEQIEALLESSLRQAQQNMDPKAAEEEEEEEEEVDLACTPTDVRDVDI

Row | IC50 | SMILES
1 | 17 nM | COC1CCN(c2ccc(Nc3ncc4c5ccncc5n(C5CCCC5)c4n3)nc2)C1 (stereo not drawn) [Example 73]
2 | 7 nM | CN(C)C1CCN(C(=O)Cc2ccc(Nc3ncc4c5ccncc5n(C5CCCC5)c4n3)nc2)CC1 [Example 243, 9-cyclopentyl-N-(5-(2-(4-(dimethylamino)-1-piperidinyl)-2-oxoethyl)-2-pyridinyl)-9H-pyrido[4′,3′:4,5]pyrrolo[2,3-d]pyrimidin-2-amine]
3 | 69 nM | C[C@H](O)Cn1c2cnccc2c2cnc(Nc3ccc(N4CCC(N(C)C)CC4)cn3)nc21 [Example 422]
4 | 19 nM | Cc1nc(Nc2ncc3c4ccnc(F)c4n(C4CCCC4)c3n2)ccc1N1CCNCC1 [Example 171, 9-Cyclopentyl-8-fluoro-N-(6-methyl-5-(1-piperazinyl)-2-pyridinyl)-9H-pyrido[4′,3′:4,5]pyrrolo[2,3-d]pyrimidin-2-amine]
5 | 7.6 nM | N[C@H]1CCN(c2cnc(Nc3ncc4c5ccncc5n(C5CCCC5)c4n3)cn2)C1 [Example 89]
6 | 26 nM | c1cc2c3cnc(Nc4ccc(N5CCC(N6CCCC6)CC5)cn4)nc3n(C3CCCC3)c2nn1 [Example 201, 9-cyclopentyl-N-(5-(4-(1-pyrrolidinyl)-1-piperidinyl)-2-pyridinyl)-9H-pyrimido[5′,4′:4,5]pyrrolo[2,3-c]pyridazin-7-amine]
7 | 800 nM | CC[C@H](C)n1c2cnccc2c2cnc(Nc3ccc(N4CCC(NC)CC4)nn3)nc21 [Example 334]
8 | 51 nM | CC[C@H](C)n1c2cnccc2c2cnc(Nc3ccc(N4CCNC(C)(C)C4)cn3)nc21 [Example 328]
9 | 85 nM | C[C@@H](CO)n1c2cnccc2c2cnc(Nc3ccc(N4CCNC(C)(C)C4)cn3)nc21 [Example 378]
10 | 59 nM | CN(C)C1CCN(c2ccc(Nc3ncc4c5ccncc5n(C5CCS(=O)(=O)CC5)c4n3)nc2)CC1 [Example 280, N-(5-(4-(dimethylamino)-1-piperidinyl)-2-pyridinyl)-9-(1,1-dioxidotetrahydro-2H-thiopyran-4-yl)-9H-pyrido[4′,3′:4,5]pyrrolo[2,3-d]pyrimidin-2-amine]
11 | 161 nM | C[C@@H](CO)n1c2cnccc2c2cnc(Nc3ccc(N4CCC(N(C)C)CC4)cn3)nc21 [Example 370]
12 | 12 nM | c1cc2c3cnc(Nc4cnc(NC5CCNCC5)cn4)nc3n(C3CCCC3)c2cn1 [Example 83]
13 | 5 nM | C[C@@H]1CN(c2ccc(Nc3ncc4c5ccnc(F)c5n(C5CCCC5)c4n3)nc2)CCN1 [Example 178, 9-Cyclopentyl-8-fluoro-N-(5-((3R)-3-methyl-1-piperazinyl)-2-pyridinyl)-9H-pyrido[4′,3′:4,5]pyrrolo[2,3-d]pyrimidin-2-amine]
14 | 7.4 nM | O=C(Cc1ccc(Nc2ncc3c4ccncc4n(C4CCCC4)c3n2)nc1)N1CCNCC1 [Example 245, 9-cyclopentyl-N-(5-(2-oxo-2-(1-piperazinyl)ethyl)-2-pyridinyl)-9H-pyrido[4′,3′:4,5]pyrrolo[2,3-d]pyrimidin-2-amine]
15 | 56 nM | N#CCC1CCN(c2ccc(Nc3ncc4c5ccnc(F)c5n(C5CCCC5)c4n3)nc2)CC1 [Example 173, (1-(6-((9-Cyclopentyl-8-fluoro-9H-pyrido[4′,3′:4,5]pyrrolo[2,3-d]pyrimidin-2-yl)amino)-3-pyridinyl)-4-piperidinyl)acetonitrile]
16 | 2.6 nM | CCN(CC)C1CCN(c2ccc(Nc3ncc4c5ccnc(OC)c5n(C5CCCC5)c4n3)nc2)CC1 [Example 285, 9-cyclopentyl-N-(5-(4-(diethylamino)-1-piperidinyl)-2-pyridinyl)-8-methoxy-9H-pyrido[4′,3′:4,5]pyrrolo[2,3-d]pyrimidin-2-amine]
17 | 8.7 nM | O=c1[nH]ccc2c3cnc(Nc4ccc(N5CCNCC5)nn4)nc3n(C3CCCC3)c12 [Example 122, 9-Cyclopentyl-2-((6-(1-piperazinyl)-3-pyridazinyl)amino)-7,9-dihydro-8H-pyrido[4′,3′:4,5]pyrrolo[2,3-d]pyrimidin-8-one]
18 | 17 nM | CN(C)C1CCN(c2ccc(Nc3ncc4c5ccncc5n(C5CCSCC5)c4n3)nn2)CC1 [Example 275, N-(6-(4-(dimethylamino)-1-piperidinyl)-3-pyridazinyl)-9-(tetrahydro-2H-thiopyran-4-yl)-9H-pyrido[4′,3′:4,5]pyrrolo[2,3-d]pyrimidin-2-amine]
19 | 190 nM | CN(C)C1CCN(c2nc(Nc3ncc4c5ccncc5n(C5CCCC5)c4n3)ns2)CC1 [Example 134]
20 | 22 nM | c1cc2c3cnc(Nc4cnc(N5CCOCC5)cn4)nc3n(C3CCCC3)c2cn1 [Example 84]
21 | 630 nM | CC[C@H](C)n1c2cnccc2c2cnc(Nc3ccc(N4CCC(N(C)C)CC4)nn3)nc21 [Example 327]
22 | 11 nM | CCN(CC)C1CCN(c2ccc(Nc3ncc4c5ccnnc5n(C5CCCC5)c4n3)nc2)CC1 [Example 281, 9-Cyclopentyl-N-(5-(4-(diethylamino)-1-piperidinyl)-2-pyridinyl)-9H-pyrimido[5′,4′:4,5]pyrrolo[2,3-c]pyridazin-7-amine]
23 | 4.6 nM | OC[C@@H]1CN(c2ccc(Nc3ncc4c5ccncc5n(C5CCCC5)c4n3)nc2)CCN1 [Example 198, ((2S)-4-(6-((9-cyclopentyl-9H-pyrido[4′,3′:4,5]pyrrolo[2,3-d]pyrimidin-2-yl)amino)-3-pyridinyl)-2-piperazinyl)methanol]

Row | IC50 | SMILES
24 | 340 nM | O[C@@H]1CCN(c2ccc(Nc3ncc4c5ccncc5n([C@H]5CCOC5)c4n3)nn2)C1 [Example 397]
25 | 281 nM | C[C@H](O)Cn1c2cnccc2c2cnc(Nc3ccc(N4CCNCC4)nn3)nc21 [Example 409]
26 | 19 nM | COCC(C)(C)n1c2cnccc2c2cnc(Nc3ccc(N4CCC(N(C)C)CC4)cn3)nc21 [Example 273, N-(5-(4-(dimethylamino)-1-piperidinyl)-2-pyridinyl)-9-(2-methoxy-1,1-dimethylethyl)-9H-pyrido[4′,3′:4,5]pyrrolo[2,3-d]pyrimidin-2-amine]
27 | 2.4 nM | OC[C@H]1CN(c2ccc(Nc3ncc4c5ccnc(F)c5n(C5CCCC5)c4n3)nc2)CCN1 [Example 196, ((2R)-4-(6-((9-Cyclopentyl-8-fluoro-9H-pyrido[4′,3′:4,5]pyrrolo[2,3-d]pyrimidin-2-yl)amino)-3-pyridinyl)-2-piperazinyl)methanol]
28 | 3.4 nM | c1cc2c3cnc(Nc4ccc(N5CCNC6(CCCC6)C5)nn4)nc3n(C3CCCC3)c2cn1 [Example 247, 9-cyclopentyl-N-(6-(6,9-diazaspiro[4.5]dec-9-yl)-3-pyridazinyl)-9H-pyrido[4′,3′:4,5]pyrrolo[2,3-d]pyrimidin-2-amine]
29 | 620 nM | CC[C@H](C)n1c2cnccc2c2cnc(Nc3ccc(N4CCC(N(C)C)CC4)cn3)nc21 [Example 326]
30 | 96 nM | CN(C)C1CCN(c2ccc(Nc3ncc4c5ccncc5n(C5CCSCC5)c4n3)nc2)CC1 [Example 276, N-(5-(4-(dimethylamino)-1-piperidinyl)-2-pyridinyl)-9-(tetrahydro-2H-thiopyran-4-yl)-9H-pyrido[4′,3′:4,5]pyrrolo[2,3-d]pyrimidin-2-amine]
31 | 6.6 nM | CC1(C)CCC(n2c3nc(Nc4ccc(N5CCC(N6CCCC6)CC5)cn4)ncc3c3ccnc(O)c32)CC1 [Example 210, 9-(4,4-dimethylcyclohexyl)-2-((5-(4-(1-pyrrolidinyl)-1-piperidinyl)-2-pyridinyl)amino)-9H-pyrido[4′,3′:4,5]pyrrolo[2,3-d]pyrimidin-8-ol]
32 | 11 nM | O=C(Cc1ccc(Nc2ncc3c4ccncc4n(C4CCCC4)c3n2)nc1)N1CCOCC1 [Example 244, 9-cyclopentyl-N-(5-(2-(4-morpholinyl)-2-oxoethyl)-2-pyridinyl)-9H-pyrido[4′,3′:4,5]pyrrolo[2,3-d]pyrimidin-2-amine]
33 | 75 nM | C[C@H](O)Cn1c2cnccc2c2cnc(Nc3ccc(N4CCN[C@@H](C)C4)cn3)nc21 [Example 423]
34 | 3.3 nM | c1cc2c3cnc(Nc4ccc(N5CCC6(CCCN6)CC5)cn4)nc3n(C3CCCC3)c2cn1 [Example 231, 9-cyclopentyl-N-(5-(1,8-diazaspiro[45]dec-8-yl)-2-pyridinyl)-9H-pyrido[4′,3′:4,5]pyrrolo[2,3-d]pyrimidin-2-amine]
35 | 33 nM | C[C@H](O)Cn1c2cnccc2c2cnc(Nc3ccc(N4CCNC(C)(C)C4)nn3)nc21 [Example 413]
36 | 0.32 nM | c1ccc(-n2c3cnccc3c3cnc(Nc4ccc(N5CCNCC5)cc4)nc32)cc1 [Example 17, (9-Phenyl-9H-pyrido[4′,3′:4,5]pyrrolo[2,3-d]pyrimidin-2-yl)-(4-piperazin-1-yl-phenyl)amine]
37 | 350 nM | CNC1CCN(c2ccc(Nc3ncc4c5ccncc5n([C@@H](C)CO)c4n3)nc2)CC1 [Example 367]
38 | 3.5 nM | C[C@@H]1CN(c2cnc(Nc3ncc4c5ccncc5n(C5CCCC5)c4n3)cn2)CCN1 [Example 80]
39 | 53 nM | CNC1CCN(c2ccc(Nc3ncc4c5ccncc5n([C@H](C)CO)c4n3)nn2)CC1 [Example 386]
40 | 17 nM | CC1CN(c2ccc(Nc3ncc4c5cc[nH]c(=O)c5n(C5CCCC5)c4n3)nc2)CC(C)N1 (stereo not drawn) [Example 124]
41 | 4.4 nM | NCC1CCCN(c2ccc(Nc3ncc4c5ccncc5n(C5CCCC5)c4n3)nn2)C1 (stereo not drawn) [Example 95]
42 | 20 nM | CC1(C)CN(c2ccc(Nc3ncc4c5cc[nH]c(=O)c5n(C5CCCC5)c4n3)nn2)CCN1 [Example 130]
43 | 73 nM | CNC1CCN(c2ccc(Nc3ncc4c5ccncc5n(C[C@@H](C)O)c4n3)nc2)CC1 [Example 425]
44 | 71 nM | C[C@H]1CN(c2ccc(Nc3ncc4c5ccncc5n([C@H]5CCC[C@H]5O)c4n3)nc2)CCN1 [Example 359]
45 | 70 nM | c1cc2c3cnc(Nc4ccc(N5CCNC6(CCC6)C5)nn4)nc3n(C3CCCC3)c2cn1 [Example 246, 9-cyclopentyl-N-(6-(5,8-diazaspiro[3.5]non-8-yl)-3-pyridazinyl)-9H-pyrido[4′,3′:4,5]pyrrolo[2,3-d]pyrimidin-2-amine]
